The results in this text go back to PubChem BioAssay (NCI).

Some test systems named below: KM12 colon; HS 578T breast; HL-60(TB) leukemia; MOLT-4 leukemia; OVCAR-8 ovarian; A498 renal; UO-31 renal; HCT-116 colon; RPMI-8226 leukemia; MALME-3M melanoma; DU-145 prostate; MCF7 breast; CCRF-CEM leukemia; IGROV1 ovarian; K-562 leukemia; NCI-H522 lung; ACHN renal; SF-295 CNS; OVCAR-5 ovarian.
Common to all, as to assay: NCI-60 cell line screen, 48 h

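Assay format: 96-well plates, 48-hour exposure. The concentration for full growth arrest is given as TGI.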 A value given as a limit tells only on which side of the number the result lay.

For `Cc1cc(C)nc(NS(=O)(=O)c2ccc(NC(=O)c3cc([N+](=O)[O-])cc([N+](=O)[O-])c3)cc2)n1`, the TGI in the assay with KM12 colon is above 100 µM; with HS 578T breast, above 100 µM; with HL-60(TB) leukemia, above 100 µM; in the assay with MOLT-4 leukemia, 13.5 µM; with OVCAR-8 ovarian, above 100 µM; in the assay with A498 renal it was above 100 µM. Also, the TGI in the assay on UO-31 renal, in the assay with HCT-116 colon, in the assay on RPMI-8226 leukemia, in the assay with MALME-3M melanoma, in the assay on DU-145 prostate and in the assay on MCF7 breast was above 100 µM each time. In addition, the TGI in the assay on CCRF-CEM leukemia, with IGROV1 ovarian and with K-562 leukemia was above 100 µM throughout.
Take `N#Cc1c(-c2ccc([N+](=O)[O-])cc2)cc(-c2ccc(Nc3ccnc4cc(Cl)ccc34)cc2)nc1N`: the TGI in the assay with NCI-H522 lung was 11.2 µM; with KM12 colon it was 14.7 µM; in the assay on HS 578T breast, 29.9 µM; in the assay on ACHN renal, above 72.6 µM; in the assay with HL-60(TB) leukemia it was 26 µM; in the assay on MOLT-4 leukemia, 5.4 µM. The TGI with OVCAR-8 ovarian is above 23.3 µM; with SF-295 CNS, 37.6 µM; in the assay with A498 renal, 51.7 µM; in the assay with UO-31 renal, 42.8 µM; in the assay with HCT-116 colon, 14.7 µM; in the assay with RPMI-8226 leukemia, 15 µM. For the same molecule, the TGI in the assay with OVCAR-5 ovarian was determined as 45.6 µM; with MALME-3M melanoma it was 39.9 µM; in the assay with DU-145 prostate, 33.2 µM; with MCF7 breast, 4.73 µM; in the assay with CCRF-CEM leukemia, 3.8 µM; in the assay with IGROV1 ovarian it was 15 µM. In the assay with K-562 leukemia, this molecule displayed a TGI above 33.1 µM.
Take `CN(C)c1ccc(/C=C(\NC(=O)c2ccccc2)C(=O)NC(Cc2c[nH]c3ccccc23)C(=O)O)cc1` (configuration not stated): the TGI in the assay with NCI-H522 lung, with KM12 colon, in the assay with HS 578T breast, with ACHN renal, with HL-60(TB) leukemia and in the assay on MOLT-4 leukemia was above 100 µM in each case. Also, the TGI in the assay on OVCAR-8 ovarian, in the assay on SF-295 CNS, in the assay on A498 renal, in the assay on UO-31 renal, in the assay on HCT-116 colon and with RPMI-8226 leukemia was above 100 µM each time. Further, the TGI with OVCAR-5 ovarian, in the assay on MALME-3M melanoma, in the assay with DU-145 prostate, in the assay with MCF7 breast, with CCRF-CEM leukemia and in the assay with IGROV1 ovarian was above 100 µM throughout. The molecule also gave a TGI in the assay with K-562 leukemia above 100 µM.
For the molecule `CCOC(=O)C1(C(=O)OCC)C=C(c2ccccc2)N(C2OC(COC(C)=O)C(OC(C)=O)C(OC(C)=O)C2OC(C)=O)C1=S` (configuration not stated), the TGI is above 100 µM in the assay with NCI-H522 lung; above 100 µM in the assay with KM12 colon; above 100 µM in the assay with HS 578T breast; 81.5 µM in the assay with HL-60(TB) leukemia; above 100 µM in the assay with MOLT-4 leukemia; above 100 µM with OVCAR-8 ovarian. The TGI in the assay on SF-295 CNS is above 100 µM; in the assay with A498 renal it was above 100 µM; in the assay on UO-31 renal, above 100 µM; in the assay on HCT-116 colon, above 100 µM; in the assay on RPMI-8226 leukemia, 44.3 µM; in the assay with OVCAR-5 ovarian, above 100 µM. The TGI in the assay with MALME-3M melanoma, with DU-145 prostate, in the assay on MCF7 breast, in the assay on CCRF-CEM leukemia and in the assay with IGROV1 ovarian was above 100 µM throughout.
Turning to `COc1cccc2cc(C(=O)NC34CC5CC(CC(C5)C3)C4)c(=N)oc12`, the TGI with NCI-H522 lung is above 88.7 µM; in the assay on KM12 colon it was above 100 µM; in the assay with HS 578T breast, above 96.7 µM; with ACHN renal, above 100 µM; in the assay on HL-60(TB) leukemia it was 29.6 µM; in the assay with MOLT-4 leukemia it was 23.2 µM. Moreover, the TGI is above 50.6 µM in the assay with OVCAR-8 ovarian; above 100 µM in the assay on SF-295 CNS; above 100 µM with A498 renal; 7.63 µM in the assay on UO-31 renal; above 100 µM in the assay with HCT-116 colon; above 77.9 µM in the assay on RPMI-8226 leukemia. In addition, the TGI in the assay on OVCAR-5 ovarian was above 100 µM; in the assay on MALME-3M melanoma, above 100 µM; in the assay with DU-145 prostate, above 100 µM; with MCF7 breast, above 100 µM; in the assay on CCRF-CEM leukemia, above 65.2 µM; in the assay on IGROV1 ovarian, above 85.7 µM. This molecule had a TGI with K-562 leukemia above 100 µM.
`[N-]=[N+]=Nc1ccc2c(c1)Sc1ccccc1N2CCCCN1CCN(C(=O)CCNC(=O)Cc2ccc(C(=O)c3ccccc3)cc2)CC1`: the TGI in the assay with NCI-H522 lung was 7.51 µM; with KM12 colon, 23 µM; in the assay on HS 578T breast it was above 100 µM; with ACHN renal, above 60.5 µM; in the assay with HL-60(TB) leukemia it was 5.57 µM; in the assay with MOLT-4 leukemia, 5.86 µM. Also, the TGI in the assay on OVCAR-8 ovarian was above 100 µM; in the assay with SF-295 CNS it was 10.1 µM; in the assay on A498 renal, above 35.9 µM; in the assay with UO-31 renal, above 100 µM; in the assay on HCT-116 colon it was 18.9 µM; with RPMI-8226 leukemia, 4.87 µM. Also, the TGI in the assay on OVCAR-5 ovarian was 51.4 µM; with MALME-3M melanoma, 10.7 µM; in the assay with DU-145 prostate, above 100 µM; in the assay with MCF7 breast, 5.78 µM; with CCRF-CEM leukemia it was 8.26 µM; with IGROV1 ovarian, above 35.5 µM.
Regarding `CC(=O)c1c(O)n(-c2ccc(C)cc2)c(=O)c2c(N)n[nH]c12`, the TGI in the assay with NCI-H522 lung, in the assay on KM12 colon, in the assay on HS 578T breast, in the assay on HL-60(TB) leukemia, with MOLT-4 leukemia and with OVCAR-8 ovarian was above 100 µM in each case. Further, the TGI in the assay with A498 renal, with UO-31 renal, in the assay on HCT-116 colon, in the assay with RPMI-8226 leukemia, in the assay with OVCAR-5 ovarian and in the assay with MALME-3M melanoma was above 100 µM each time. The TGI in the assay with DU-145 prostate, with MCF7 breast, with CCRF-CEM leukemia, in the assay on IGROV1 ovarian and in the assay on K-562 leukemia was above 100 µM throughout.
Turning to `Cc1cc(NS(=O)(=O)c2ccc(Nc3c4ccccc4nc4c(C(=O)NCCO)cccc34)cc2)no1`, the TGI in the assay on NCI-H522 lung is 30.2 µM; in the assay on KM12 colon, 62.7 µM; in the assay on HS 578T breast, above 100 µM; in the assay with ACHN renal, above 100 µM; in the assay on HL-60(TB) leukemia it was above 100 µM; in the assay on MOLT-4 leukemia it was above 100 µM. Further, the TGI is above 100 µM with OVCAR-8 ovarian; above 100 µM in the assay with SF-295 CNS; above 100 µM in the assay on A498 renal; 99.7 µM in the assay with UO-31 renal; 79.3 µM with RPMI-8226 leukemia; above 100 µM with OVCAR-5 ovarian. In addition, the TGI was 70.4 µM with MALME-3M melanoma; above 100 µM with DU-145 prostate; 45.5 µM with MCF7 breast; 75.2 µM with CCRF-CEM leukemia; above 100 µM in the assay on IGROV1 ovarian; above 100 µM in the assay on K-562 leukemia.
